The record followed here is patent US20250026746A1, “ENHANCERS OF PARTICULATE GUANYLYL CYCLASE RECEPTOR A” (Mayo Foundation for Medical Education and Research, priority 2021, published 2025).

SMILES strings stand for the structures. Where a name gives a salt, the structure may show the parent alone.

One assay concerns the target T1, human GC-A (Homo sapiens, UniProt P16066).
T1 construct: host or cells: HEK293
T1 sequence (P16066 33-1061): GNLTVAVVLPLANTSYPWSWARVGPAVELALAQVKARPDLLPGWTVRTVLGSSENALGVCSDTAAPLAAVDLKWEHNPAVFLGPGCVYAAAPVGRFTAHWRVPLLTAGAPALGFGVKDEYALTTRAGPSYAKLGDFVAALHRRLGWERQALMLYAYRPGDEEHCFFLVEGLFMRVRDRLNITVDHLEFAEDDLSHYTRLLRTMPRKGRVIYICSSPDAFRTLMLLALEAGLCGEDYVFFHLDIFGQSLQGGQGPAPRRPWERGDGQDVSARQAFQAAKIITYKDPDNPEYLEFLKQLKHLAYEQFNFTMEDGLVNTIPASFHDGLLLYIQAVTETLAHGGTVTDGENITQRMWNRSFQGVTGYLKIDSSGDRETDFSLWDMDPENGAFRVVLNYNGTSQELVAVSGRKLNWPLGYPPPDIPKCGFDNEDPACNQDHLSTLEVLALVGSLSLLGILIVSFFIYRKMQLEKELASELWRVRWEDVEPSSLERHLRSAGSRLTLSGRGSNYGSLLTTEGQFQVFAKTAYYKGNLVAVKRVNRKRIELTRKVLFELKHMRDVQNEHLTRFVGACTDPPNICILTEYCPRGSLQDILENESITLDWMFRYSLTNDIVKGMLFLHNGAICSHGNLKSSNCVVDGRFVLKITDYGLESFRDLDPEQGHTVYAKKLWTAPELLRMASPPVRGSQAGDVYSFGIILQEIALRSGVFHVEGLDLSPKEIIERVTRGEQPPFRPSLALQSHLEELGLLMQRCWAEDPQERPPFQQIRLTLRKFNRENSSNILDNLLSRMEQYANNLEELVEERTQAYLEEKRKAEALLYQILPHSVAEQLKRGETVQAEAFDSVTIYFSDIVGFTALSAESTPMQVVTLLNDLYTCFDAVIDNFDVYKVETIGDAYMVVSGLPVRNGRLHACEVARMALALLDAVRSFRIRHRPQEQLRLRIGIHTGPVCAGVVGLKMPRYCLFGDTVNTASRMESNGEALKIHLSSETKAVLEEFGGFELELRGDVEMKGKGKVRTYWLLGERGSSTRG
T1 sequence (P01160 124-151 partner limits assumed): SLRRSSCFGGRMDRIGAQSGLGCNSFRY
In words: EC50 and Emax cGMP determination, HTRF, human GC-A overexpressing HEK293 cells. Format: cell-based. To be noted: for Emax: HEK293, HEK293 GC-A cells, read-out: EMax cGMP activities; for Emax / EMax cGMP activities: 100% = saturating ANP (10 nM), 0% = EC20 ANP; for EC50: EC20 ANP, read-out: EC50 cGMP activities. The method, then: Test compounds were evaluated for potentiation of cGMP in human GC-A overexpressing HEK293 cells (Cardiorenal Research Laboratory, Mayo Clinic). Test compounds at 10 mM DMSO stock concentration were dispensed into 384 well small volume white plates using Tecan D300e digital dispenser starting at 5 μM or 40 μM concentration and diluted 2-fold for 10-point concentration response. Wells were backfilled with DMSO such that the final concentration of DMSO in all wells was maintained at 0.3% DMSO. Atrial natriuretic peptide (ANP, Phoenix Pharmaceuticals) ANP was prepared as working stock aliquots at 5 μM in phosphate-buffered solution (PBS) with 0.1% bovine serum albumin (BSA) and diluted to […] in buffer plus Tween20 at 0.3% and added to plates to a final concentration equivalent to EC20 ANP in the cGMP assay. GC-A cells in suspension ([…]) in OptiMem media (ThermoFisher 11058-021) supplemented with 2% fetal bovine serum were plated at 1×10^6 cells/mL and assay plates were spun at 1000 rpm for 30 sec and incubated at room temperature for 30 min. GC-A-mediated activation of cGMP production was measured using cGMP CisBio detection homogenous time-resolved florescence (HTRF) competition assay using labeled-cGMP in human GC-A-overexpressing HEK293 cells. 5 μL of d-2 acceptor was dispensed into each well followed by addition of 5 μL of Anti-cGMP Eu-Cryptate antibody donor and plates were spun at 1000 rpm for 30 sec and incubated in the dark at room temperature for 1 hr. HTRF florescence was read on the ClarioStar microplate reader (BMG). A 100% response was determined from wells in the absence of compound and presence of saturating concentration of ANP (10 nM), and 0) % response was determined from wells containing an EC20 concentration of ANP determined for each new lot of ANP. Concentration-response curves for test compounds were analyzed by […] analysis using GraphPad software to determine EC50 and Emax values.
A general note: In TR-FRET formats the signal depends on donor and acceptor labels being close together.

The target of assay [1] is T2, extracellular domain human GC-A recombinant protein (Homo sapiens, UniProt P16066).
T2 construct: extracellular domain human GC-A recombinant protein; purchased My BioSource, Inc. San Diego, CA
T2 sequence (P16066 33-473 limits assumed): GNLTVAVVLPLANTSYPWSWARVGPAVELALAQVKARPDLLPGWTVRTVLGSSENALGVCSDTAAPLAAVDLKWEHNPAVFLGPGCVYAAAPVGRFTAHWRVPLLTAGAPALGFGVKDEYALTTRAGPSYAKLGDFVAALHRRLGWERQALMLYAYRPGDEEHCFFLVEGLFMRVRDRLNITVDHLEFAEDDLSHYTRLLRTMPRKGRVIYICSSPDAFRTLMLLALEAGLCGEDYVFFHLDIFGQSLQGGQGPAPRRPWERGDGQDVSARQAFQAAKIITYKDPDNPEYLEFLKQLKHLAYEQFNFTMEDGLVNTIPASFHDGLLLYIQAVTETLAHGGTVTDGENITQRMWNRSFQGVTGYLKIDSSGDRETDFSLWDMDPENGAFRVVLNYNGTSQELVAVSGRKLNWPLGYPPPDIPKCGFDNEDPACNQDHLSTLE
The assay is described as follows: Surface plasmon resonance binding to GC-A receptor. The settings on record: acetate salt; for Kd: SPR 25° C., 1:1 Langmuir model. The method, then:
Surface plasmon resonance (SPR) measurements were performed at 25° C. on a BI-4500 SPR instrument (Biosensing Instrument Inc. Tempe AZ). As per the instructions by the Biosensing instrument manual, 400 mM nickel sulfate in deionized water was linked to the Ni-NTA sensor chip (Biosensing Instrument Inc. Tempe AZ. Then 30 μg/ml of extracellular domain human GC-A recombinant protein (My BioSource, Inc. San Diego, CA), containing 12 histidine residues on the C-terminus, was then immobilized to the nickel sulfate on the Ni-NTA sensor chip. After, the chip was washed with buffer (150 mM NaCl, 50 μM EDTA pH 7.4, 0).1% DMSO), then 100 μL of sequentially diluted Compound 3 acetate salt (0.125, 0.25, 0.5, 1, 2 μM), Compound 1 acetate salt (6.25, 12.5, 25, 50, 100 nM) or Compound 2 acetate salt (0.125, 0.25, 0.5, 1, 2 μM) was injected at the rate of 60 ul/min and allowed to dissociate for 60 seconds. Data was collected as sensorgrams. Binding kinetics were derived from sensorgrams using BI-Data Analysis Program (Biosensing Instrument, Tempe AZ). Affinity analysis of GC-A with Compound 3, Compound 2 and/or Compound 1 interactions were performed using a 1:1 Langmuir binding model. Two series were performed for all studies.
In general terms: Surface plasmon resonance follows binding to a sensor surface in real time, without labels.

For assay [2], the system named is Primary Human cardiomyocytes. In words: cGMP levels (ELISA) in human cardiomyocytes. It is filed as cell-based. The settings on record: acetate salt, 1 or 10 μM, ANP (10^-10 M), vs vehicle. The procedure:
Primary Human cardiomyocytes (HCMs: Catalog No. 6200, Lot No. 6288, PromoCell) were maintained and subcultured according to the manufacturer's protocols. Passage 5 was used in the study. Treatment buffer, Compound 3, Compound 1 and Compound 2 acetate salt, ANP, and vehicle were prepared as described above. Briefly, 5×10^5 of cells/well were grown in 6-well plates until 80 to 90% confluency and were then pretreated with vehicle or Compound 3, Compound 1 or Compound 2 at doses of 1 or 10 μM for 5 min at 37° C., then cells were treated with ANP (10^-10 M) for an additional 10 min at 37° C. Afterward, all cells were washed with PBS once and lysed with 0.1 M HCl at room temperature, and intracellular cGMP levels were measured in the lysate using a commercial cGMP ELISA kit (Enzo Life Sciences) with the acetylation method as instructed by the manufacturer.

As to `CN(C)CCN1CCCC(C(=O)Nc2nc3c(F)cc(F)cc3s2)C1` (racemic) [Compound 3 TFA salt, N-(4,6-difluorobenzo[d]thiazol-2-yl)-1-(2-(dimethylamino)ethyl) piperidine-3-carboxamide], the Emax – broadly, the size of the effect at its maximum, as opposed to the concentration needed – at human GC-A is 95.8%. Besides, the half-maximal effective concentration (EC50) (in general, the concentration that produces a half-maximal response) on human GC-A (HEK293 GC-A cells) stood at 570 nM.

For the compound `CN(C)CCN1CCCC(C(=O)Nc2nc3c(F)cc(F)cc3s2)C1` (racemic) [Compound 3 acetate salt, N-(4,6-difluoro-1,3-benzothiazol-2-yl)-1-[2-(dimethylamino)ethyl]piperidine-3-carboxamide], on human GC-A (HEK293 GC-A cells), the “potency in potentiating ANP-mediated cGMP generation (comparison between forms/enantiomers)” value is listed as “more potent”, the EC50 turned out to be 320 nM and the “EMax cGMP activities” value is 84.0%. For the same compound, the Kd (usually a measure of binding affinity in units of concentration) in assay [1] came to 176 nM. Besides, the “cGMP generation in HCMs in the presence of ANP” value in assay [2] was “dose dependent increase”.

On to `CN(C)CCN1CCC[C@H](C(=O)Nc2nc3c(F)cc(F)cc3s2)C1` [Compound 1 TFA salt, (S)-N-(4,6-difluorobenzo[d]thiazol-2-yl)-1-(2-(dimethylamino)ethyl) piperidine-3-carboxamide], for which, on human GC-A (HEK293 GC-A cells), the EC50 is 160 nM and the “EMax cGMP activities” value is 75.3%.

In the case of `CN(C)CCN1CCC[C@H](C(=O)Nc2nc3c(F)cc(F)cc3s2)C1` [Compound 1 acetate salt, (S)-N-(4,6-difluoro-1,3-benzothiazol-2-yl)-1-[2-(dimethylamino)ethyl]piperidine-3-carboxamide], the Emax at human GC-A turned out to be 81.5%. In addition, the EC50 on human GC-A (HEK293 GC-A cells) worked out at 150 nM. The “binding for the GC-A receptor compared with Compound 3 and Compound 2 acetate salts” value in assay [1] (SPR) is “greater binding”. Also, the Kd in assay [1] was 12 nM.

In the case of `CN(C)CCN1CCC[C@@H](C(=O)Nc2nc3c(F)cc(F)cc3s2)C1` [Compound 2 TFA salt, (R)-N-(4,6-difluorobenzo[d]thiazol-2-yl)-1-(2-(dimethylamino)ethyl) piperidine-3-carboxamide], the maximum response (Emax) on human GC-A is 82.7%. Moreover, the EC50 on human GC-A (HEK293 GC-A cells) was determined as 730 nM.

As to `CN(C)CCN1CCC[C@@H](C(=O)Nc2nc3c(F)cc(F)cc3s2)C1` [Compound 2 acetate salt, (R)-N-(4,6-difluoro-1,3-benzothiazol-2-yl)-1-[2-(dimethylamino)ethyl]piperidine-3-carboxamide], at human GC-A (HEK293 GC-A cells), the EC50 is 1320 nM and the “EMax cGMP activities” value was found to be 73.1%. Besides, the Kd in assay [1] was 120 nM.
